The source of these data is patent EP1096004B1, “Pro-fragrance compounds” (THE PROCTER & GAMBLE COMPANY, priority 1996, dated 1997).

The series can be described thus: Pro-Fragrant Hydrolysis Test (hydrolysis half-life by UV/Vis spectroscopy). The format is physicochemical. The note with it: acid hydrolysis at pH 0 (1N HCl), 90/10 dioxane/water, 30°C. As to the method: Hydrolysis half-life is the measurement used to determine the ease with which the pro-fragrance compound undergoes acid hydrolysis and thereby releases its fragrance component(s) upon exposure to acid conditions. […] Preferably, pro-fragrance of the invention has a half-life at pH 2 of less than 60 minutes. For granular detergents, the more reactive pro-fragrances, that is, those with half-life at […] of less than one minute, are most suitable, although those having a half-life of less than 60 minutes at pH 0 are also useful. […]
All measurements are carried out using a Hewlett Packard 8452 A Diode Array Spectrophotometer using quartz 1 cm path length cuvette cells. […] The pH's are measured using an Orion 230 A standardized with pH 4 and pH 7 buffers. […]
Pro-fragrance is weighed out in a 10.00 ml volumetric flask using an analytical balance (Mettler AE 200) Precision is 1/10 mg. […] Hydrolysis time is measured, starting upon addition of the acid. […] The absorbance of the pro-fragrance solution (At) is followed at a regular series of time intervals, and the cuvette is kept in the water-bath at the above-indicated temperature between measurements. […] The wavelength at which the hydrolysis is followed is chosen at the wavelength of the absorbance maximum of the parent aldehyde or ketone.
Reaction half-lifes are determined using conventional procedures. […]

`CC(C)=CCCC(C)=CC(OC/C=C(\C)CCC=C(C)C)OC/C=C(\C)CCC=C(C)C` [Example 1, Digeranyl Citral Acetal]: the “t 1/2 at 0 pH” value is “less than one”.
